Results as given in the supplement of paper PMC5579334.
± gives the standard deviation of the averaged measurements.

Experiments:
[1] = test system: HS-PSS; experiment: drug sensitivity score (DSS, CellTiter-Glo viability, 72 h) (DSS (dimensionless)); higher = more sensitive; extreme values may be limits of the assay
Procedure, shortened: (§1)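 Viability of MPNST cell lines and primary human Schwann cells was read as CellTiter-Glo ATP luminescence after 72 h at 37 °C, 5% CO2, in 384-well plates seeded with 750–1000 cells per well. Each compound had been preprinted at five concentrations in 10-fold steps. Signals were scaled between vehicle and positive-control wells, duplicates averaged where present, and fitted with four-parameter logistic curves. Drug sensitivity score and relative IC50 (censored at the top concentration) come from those fits, and percent inhibition is taken at the top concentration.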

[2] = test system: HS-Sch-2; experiment: as above
Procedure, shortened: as §1

[3] = test system: HSC1 (primary human Schwann cells); experiment: as above
Procedure, shortened: as §1

[4] = test system: HSC2 (primary human Schwann cells); experiment: as above
Procedure, shortened: as §1

[5] = test system: S1507-2; experiment: as above
Procedure, shortened: as §1

[6] = test system: S462; experiment: as above
Procedure, shortened: as §1

[7] = test system: ST8814; experiment: as above
Procedure, shortened: as §1

[8] = test system: STS26T; experiment: as above
Procedure, shortened: as §1

[9] = test system: YST-1; experiment: as above
Procedure, shortened: as §1

[10] = test system: HS-PSS; experiment: drug sensitivity score (DSS, CellTox-Green cytotoxicity, 72 h) (DSS (dimensionless)); higher = more cytotoxic; extreme values may be limits of the assay
Procedure, shortened: (§2)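 MPNST cell lines and primary human Schwann cells were grown for 72 h at 37 °C in 384-well plates containing five 10-fold compound dilutions. CellTox-Green, added before seeding at a final 1:1000 dilution, gave fluorescence from DNA released by disrupted cells, and signals were scaled to vehicle and positive-control wells. Curves were fitted with a four-parameter logistic model. Drug sensitivity score and relative IC50 come from these fits, with IC50 censored at the top concentration.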

[11] = test system: HSC1 (primary human Schwann cells); experiment: as above
Procedure, shortened: as §2

[12] = test system: HSC2 (primary human Schwann cells); experiment: as above
Procedure, shortened: as §2

[13] = test system: S1507-2; experiment: as above
Procedure, shortened: as §2

[14] = test system: ST8814; experiment: as above
Procedure, shortened: as §2

[15] = test system: STS26T; experiment: as above
Procedure, shortened: as §2

[16] = test system: HS-PSS; experiment: % inhibition of CellTiter-Glo viability at highest tested concentration (72 h), relative to DMSO and benzethonium chloride controls; higher = more inhibition
Procedure, shortened: as §1

[17] = test system: HS-Sch-2; experiment: as above
Procedure, shortened: as §1

[18] = test system: HSC1 (primary human Schwann cells); experiment: as above
Procedure, shortened: as §1

[19] = test system: HSC2 (primary human Schwann cells); experiment: as above
Procedure, shortened: as §1

[20] = test system: S1507-2; experiment: as above
Procedure, shortened: as §1

[21] = test system: S462; experiment: as above
Procedure, shortened: as §1

[22] = test system: ST8814; experiment: as above
Procedure, shortened: as §1

[23] = test system: STS26T; experiment: as above
Procedure, shortened: as §1

[24] = test system: YST-1; experiment: as above
Procedure, shortened: as §1

Row | SMILES | drug sensitivity score [1] | drug sensitivity score [2] | drug sensitivity score [3] | drug sensitivity score [4] | drug sensitivity score [5] | drug sensitivity score [6] | drug sensitivity score [7] | drug sensitivity score [8] | drug sensitivity score [9] | drug sensitivity score [10] | drug sensitivity score [11] | drug sensitivity score [12] | drug sensitivity score [13] | drug sensitivity score [14] | drug sensitivity score [15] | % inhibition [16] [%] | % inhibition [17] [%] | % inhibition [18] [%] | % inhibition [19] [%] | % inhibition [20] [%] | % inhibition [21] [%] | % inhibition [22] [%] | % inhibition [23] [%] | % inhibition [24] [%]
1 | CC[C@H](Nc1ncnc2[nH]cnc12)c1nc2cccc(F)c2c(=O)n1-c1ccccc1 [Idelalisib] (max concentration tested 10000 nM) | 0 | 0 | 0 | 0 | 7.05 ± 0.49 | 0 | 0.546 | 4.47 | 5.3 | 0 | 0 | 2.82 | 0 | 0 | 2.81 | 2.74 | 3.62 | 14.6 | 9.86 | 35.2 ± 8.5 | 19.1 ± 8.8 | 21.2 | 49.3 | 46.5
2 | O=P1(NCCCl)OCCCN1CCCl (stereo not drawn) [Ifosfamide] (max concentration tested 10000 nM) | 0 | 0 | 0 | 0 | 0.228 ± 0.32 | 0 | 0 | 0 | 0.08 | 0 | 0 | 0 | 0 | 0 | 0 | -0.44 | -4.64 | 0.661 | -1.49 | 4.66 ± 16 | 2.94 ± 0.79 | 1.12 | -1.13 | 11.6
3 | Cc1ccc(NC(=O)c2ccc(CN3CCN(C)CC3)cc2)cc1Nc1nccc(-c2cccnc2)n1 [Imatinib] (max concentration tested 10000 nM) | 4.08 | 4.96 | 0 | 0 | 3.9 ± 0.28 | 0.251 ± 0.2 | 1.36 | 0.675 | 4.29 | 0.1 | 0 | 0 | 0.237 ± 0.34 | 1.72 | 0 | 58.8 | 89.5 | 9.96 | 8.82 | 49.5 ± 1.2 | 16.7 ± 2.7 | 33.4 | 23.5 | 53.8
4 | CC(C)Cn1cnc2c(N)nc3ccccc3c21 [Imiquimod] (max concentration tested 2500 nM) | 0.9 | 0.45 | 0 | 0 | 0 | 0 | 0 | 0 | 0 | 0 | 0 | 0 | 0 | 0 | 0 | 14.8 | 16.9 | -1.61 | 6.67 | -4.77 ± 3.7 | 1.41 ± 6.7 | -6.88 | 3.07 | 4.76
5 | O=C(Nc1ccncc1)C(=O)c1cn(Cc2ccc(Cl)cc2)c2ccccc12 [Indibulin] (max concentration tested 10000 nM) | 2.56 | 10.5 | 11.2 | 10.5 | 15 ± 3.3 | 16.5 ± 0.54 | 14.4 | 20.1 | 10.2 | 0 | 5.82 | 7.54 | 10.8 ± 3.9 | 12.6 | 21.5 | 24.1 | 83.6 | 67.6 | 78.1 | 80.5 ± 4.1 | 93.04 ± 0.44 | 74.8 | 93 | 66.2
6 | NC(=O)c1ccc(I)c([N+](=O)[O-])c1 [Iniparib] (max concentration tested 10000 nM) | 0 | 0 | 0 | 0 | 0 | 0 | 0 | 0 | 0 | 0 | 0 | 0 | 6.29 ± 8.9 | 0 | 0.221 | -1.31 | 1.26 | -4.93 | 1.97 | 9.46 ± 1.8 | 13.9 ± 7.7 | -1.13 | 7.72 | -4.35
7 | CCc1c2c(nc3ccc(OC(=O)N4CCC(N5CCCCC5)CC4)cc13)-c1cc3c(c(=O)n1C2)COC(=O)[C@]3(O)CC [Irinotecan] (max concentration tested 10000 nM) | 3.76 | 8.31 | 9.72 | 8.79 | 6.91 ± 0.48 | 9.83 ± 0.34 | 9.68 | 6.61 | 12 | 3.15 | 6.2 | 5.29 | 2.16 ± 1.5 | 8.16 | 3.22 | 58.3 | 81.5 | 63.6 | 72.5 | 75.8 ± 0.88 | 98.1 ± 0.28 | 93.9 | 76.6 | 71.2
